Measurements from patent publication US20260124309A1, “STAT6 DEGRADERS AND USES THEREOF” (Kymera Therapeutics, Inc., priority 2023, published 2026).

Experiments:
[1] = target: T1, biotinylated truncated STAT6 (123-632)-avi (Homo sapiens, UniProt P42226); assay: STAT6 HTRF binding assay; conditions: HTRF binding, 0.15 nM biotinylated truncated STAT6 (123-632)-avi, 20 nM fluorescein-labeled probe
T1 construct: biotinylated truncated STAT6 (123-632)-avi purified from E. coli; made in house; host or cells: E. coli
T1 sequence (P42226 123-632 limits assumed): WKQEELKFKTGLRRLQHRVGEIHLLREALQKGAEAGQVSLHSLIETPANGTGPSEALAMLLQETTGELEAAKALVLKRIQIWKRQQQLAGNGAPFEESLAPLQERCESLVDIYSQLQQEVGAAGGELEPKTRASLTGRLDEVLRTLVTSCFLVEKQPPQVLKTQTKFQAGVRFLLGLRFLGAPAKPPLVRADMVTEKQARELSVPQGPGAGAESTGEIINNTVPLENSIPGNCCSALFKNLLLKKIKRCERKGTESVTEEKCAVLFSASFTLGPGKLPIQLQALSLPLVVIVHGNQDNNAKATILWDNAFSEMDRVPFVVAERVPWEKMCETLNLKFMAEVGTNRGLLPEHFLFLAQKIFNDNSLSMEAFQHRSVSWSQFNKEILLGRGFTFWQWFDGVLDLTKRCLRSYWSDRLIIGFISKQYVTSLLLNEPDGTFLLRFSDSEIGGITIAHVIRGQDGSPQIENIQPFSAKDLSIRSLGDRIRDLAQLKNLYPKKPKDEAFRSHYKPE
Procedure: HTRF binding assays were performed using 0.15 nM biotinylated truncated STAT6 (123-632)-avi purified from E. coli, 1× Streptavidin-terbium (CisBio) prepared by mixing SA-Tb in PPI detection buffer (CisBio), 20 nM proprietary fluorescein-labeled probe, and test compounds in assay buffer consisting of 50 mM HEPES-Na pH 7.5, 100 mM NaCl, 1 mM EDTA, 2 mM DTT, 0.1% Tween-20 with a final volume of 20 uL. Compound stocks were dissolved at 10 mM in 100% DMSO and 11 point titration with 3 fold serial dilution was performed in white, opaque 384 well microplates. Reaction plates were incubated at room temperature for 30 minutes. Plates were centrifuged at low rpm for 5 mins, and the ratio of fluorescence intensities were measured at emission wavelengths for fluorescein acceptor (520 nm) and terbium donor (495 nm) on Envision Plate reader. % Inhibition was calculated from the 520/495 ratio generated by using proprietary positive control compound for 100% inhibition and DMSO only reactions for 0% inhibition. Data was processed and dose response curves were generated using GraphPad Prism to determine the concentration required for inhibiting 50% of the HTRF signal (IC50).
The letter codes for IC50 (μM) include: A (<0.1 μM); B (0.1-1 μM); C (>1-10 μM); D (>10-100 μM); E (>100 μM); and F (not tested).

STAT6 = target: T2, STAT6 (Homo sapiens, UniProt P42226); assay: STAT6 MSD degradation in A549 cells; type: cell-based; conditions: 24 h
T2 construct: endogenous in cells; host or cells: A549
T2 sequence (P42226 1-847): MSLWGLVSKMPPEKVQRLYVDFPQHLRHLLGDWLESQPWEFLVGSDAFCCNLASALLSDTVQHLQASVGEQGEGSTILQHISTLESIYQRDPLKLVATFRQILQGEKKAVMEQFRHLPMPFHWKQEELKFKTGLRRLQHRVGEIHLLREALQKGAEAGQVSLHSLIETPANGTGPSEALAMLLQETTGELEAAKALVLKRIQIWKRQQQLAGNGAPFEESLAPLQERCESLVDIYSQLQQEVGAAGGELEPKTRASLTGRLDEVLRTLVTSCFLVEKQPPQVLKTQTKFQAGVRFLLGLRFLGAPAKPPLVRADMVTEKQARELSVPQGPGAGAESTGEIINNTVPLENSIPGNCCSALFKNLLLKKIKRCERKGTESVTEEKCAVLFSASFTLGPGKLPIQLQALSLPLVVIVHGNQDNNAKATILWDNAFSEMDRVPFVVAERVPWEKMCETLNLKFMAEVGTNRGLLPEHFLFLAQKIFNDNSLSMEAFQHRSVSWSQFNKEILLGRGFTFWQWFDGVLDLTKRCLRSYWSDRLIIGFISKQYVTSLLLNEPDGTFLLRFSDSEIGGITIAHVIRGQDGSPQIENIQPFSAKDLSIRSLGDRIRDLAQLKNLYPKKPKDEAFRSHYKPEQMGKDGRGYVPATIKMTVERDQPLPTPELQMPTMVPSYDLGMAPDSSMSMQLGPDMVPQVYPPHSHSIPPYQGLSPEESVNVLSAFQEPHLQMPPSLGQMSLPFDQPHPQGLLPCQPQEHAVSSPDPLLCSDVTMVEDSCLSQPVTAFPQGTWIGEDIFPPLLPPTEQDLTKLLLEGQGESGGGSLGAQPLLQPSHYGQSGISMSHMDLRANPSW
Procedure: Degradation of STAT6 in cells was quantitatively measured using Meso Scale Discovery (MSD) technology. A549 cells were seeded in 96-well plates with a density of 1.5×10e4 to 5×10e5 cells per well in 100 μl fresh media. Compounds were then added to the assay plates with a final top concentration of up to 10 uM in a 1:3 dilution series with total of 9 doses. The assay plates were then incubated for 4 to 24 hours at 37° C. under 5% CO2. The assay plates were then centrifuged for 5 minutes and the cell pellets were treated with 100 μl/well RIPA lysis buffer (Boston Bioproducts, BP-115D) with protease and phosphatase inhibitors (Roche, 05892791001 and 04906837001). To prepare the MSD assay plates (MSD, L15XA), the plates were coated with the capture antibody (Abnova, H00006778) in PBS, at 40 μl/well. The plates were then incubated overnight at 4° C., washed 1 time with 150 μl/well TBST buffer (Cell Signaling Technology, #9997S) and blocked with 150 μl/well blocking buffer (MSD, R93BA-4). Cell lysates were then added to MSD assay plates and the plates were incubated at room temperature for 1 hour. The plates were then washed 3 times with 150 μl/well TBST buffer and 25 μl/well primary detection antibody (Cell Signaling Technology, #5397S). The assay plates were then incubated at room temperature for 1 hour, washed 3 times with 150 μl/well TBST buffer, and 25 μl/well secondary detection antibody, SULFO-TAG anti-rabbit antibody (MSD, R32AB-1) were added. The assay plates were then incubated at room temperature for 1 hour, washed 3 times with 150 μl/well TBST buffer, and 150 μl/well MSD reading buffer (MSD, R92TC-2) were added. The plates were then analyzed by an MSD reader. The data was analyzed by GraphPad Prism and the dose dependent STAT6 degradation was fit using the four-parameter inhibitor vs. response nonlinear regression.
The letter codes for DC50 (nM) include: A (<1 nM); B (1-10 nM); C (>10-100 nM); D (>100-1000 nM); E (>1000 nM); and F (not tested). The letter codes for Dmax (oo) include: A (>90%); B (>70-90%); C (>50-70%); D ([…]); and F (not tested).

STAT6-HiBiT = target: T3, STAT6-HiBiT (Homo sapiens, UniProt P42226); assay: STAT6 HiBiT degradation in A549 (STAT6-HiBiT) cells; type: cell-based; conditions: 24 h
T3 construct: Degradation of STAT6 in endogenously tagged STAT6-HiBiT A549 cells; endogenous in cells; host or cells: A549 (STAT6-HiBiT) knock-in cells
T3 sequence (P42226 1-847): T2 sequence (P42226 1-847)
Procedure: Degradation of STAT6 in endogenously tagged STAT6-HiBiT A549 cells was quantitatively measured using the Nano-Glo HiBiT Lytic Detection System (Promega, 3040). A549 (STAT6-HiBiT) cells were seeded in 384-well plates with a density of 1.25k cells per well in 20 μl fresh media. Compounds were then added to the assay plates using the Apricot S3 with a final top concentration of up to 10 uM in a 4-fold dilution series with total of 10 doses. The assay plates were then incubated for 24 hours at 37° C. under 5% CO2. At the assay endpoint, 20 μL of Nano-Glo HiBiT Lytic Reagent was added to each well and agitated on a plate shaker at 300 rpm for 10 minutes at room temperature. Luminescence was read on PHERAStar FSX Instrument (Is integration time). The data was analyzed by GraphPad Prism and the dose dependent STAT6 degradation was fit using the four-parameter inhibitor vs. response nonlinear regression.
The letter codes for DC50 (nM) include: A (<1 nM): B (1-10 nM); C (>10-100 nM); D (>100-1000 nM); E (>1000 nM); and F (not tested). The letter codes for Dmax (%) include: A (>90%); B (>70-90%); C (>50-70%); D (<50%); and E (not tested).

Structure (SMILES) | IC50 [1] [nM] | DC50 (STAT6) [nM] | Dmax (STAT6) [%] | Dmax (STAT6-HiBiT) [%] | DC50 (STAT6-HiBiT) [nM]
CN(C)C(=O)c1cc2c(-c3ccc(C4CCN(c5ccc(C6CCC(=O)NC6=O)cc5F)CC4)cc3)cc(C3=CCCN(C(=O)CCn4cccn4)C3)c(F)c2[nH]1 (stereo not drawn) [Example I-628, 6-(1-(3-(1H-pyrazol-1-yl)propanoyl)-1,2,5,6-tetrahydropyridin-3-yl)-4-(4-(I-(4-(2,6-dioxopiperidin-3-yl)-2-fluorophenyl)piperidin-4-yl)phenyl)-7-fluoro-N,N-dimethyl-1H-indole-2-carboxamide] | < 100 | < 1 | > 90 | > 90 | 
CN(C)C(=O)c1cc2c(-c3ccc(C4CCN(c5ccc([C@@H]6CCC(=O)NC6=O)cc5F)CC4)cc3)cc(C3=CCCN(C(=O)CCn4ccnn4)C3)c(F)c2[nH]1 (single isomer, unassigned) [Example I-1438] | < 100 |  |  | > 90 | < 1
COc1cc(N2CCN(c3ccc(-c4cc(C5=CCCN(C(=O)CCn6cccn6)C5)c(F)c5[nH]c(C(=O)N(C)C)cc45)c(F)c3F)CC2)c(F)cc1NC1CCC(=O)NC1=O (stereo not drawn) [Example I-677, 6-(1-(3-(1H-pyrazol-1-yl)propanoyl)-1,2,5,6-tetrahydropyridin-3-yl)-4-(4-(4-(4-((2,6-dioxopiperidin-3-yl)amino)-2-fluoro-5-methoxyphenyl)piperazin-1-yl)-2,3-difluorophenyl)-7-fluoro-N,N-dimethyl-1H-indole-2-carboxamide] | < 100 | < 1 | > 90 | > 90 | < 1
Cc1nn([C@H]2CCC(=O)NC2=O)c2cccc(CCN3CCN(c4cc(Cl)c(-c5cc(C6=CCCN(C(=O)CCn7cccn7)C6)c(F)c6[nH]c(C(=O)N(C)C)cc56)cc4F)CC3)c12 (single isomer, unassigned) [Example I-1078] | < 100 |  |  | > 90 | < 1
COc1cc(N2CCN(CCCCCCCCN(C(=O)[C@H]3CCCN(c4cncc5ccccc45)C3)c3ccc(=O)n(CC(=O)O)c3)CC2)ccc1-c1cc(C2=CCCN(C(=O)CCn3ccnn3)C2)c(F)c2[nH]c(C(=O)N(C)C)cc12 [Example I-1076, (S)-2-(5-(N-(8-(4-(4-(6-(l-(3-(1H-1,2,3-triazol-1-yl)propanoyl)-1,2,5,6-tetrahydropyridin-3-yl)-2-(dimethylcarbamoyl)-7-fluoro-LH-indol-4-yl)-3-methoxyphenyl)piperazin-1-yl)octyl)-1-(isoquinolin-4-yl)piperidine-3-carboxamido)-2-oxopyridin-1 (2H)-yl)acetic acid] | < 100 | 10 to 100 | 50 to 70 |  | 
Cc1cc(C2CCN(c3cccc4c3n(C)c(=O)n4[C@H]3CCC(=O)NC3=O)CC2)ccc1-c1cc(C2=CCCN(C(=O)C(C)C)C2)c(F)c2[nH]c(C(=O)N(C)C)cc12 (single isomer, unassigned) [Example I-791] | 1000 to 10000 | < 1 | > 90 |  | 
CN(C)C(=O)c1cc2c(-c3ccc(C4CCN(c5ccc(C6CCC(=O)NC6=O)cc5F)CC4)cc3)cc(C3=CCCN(C(=O)CCn4ccnn4)C3)c(F)c2[nH]1 (single isomer, unassigned) [Example I-1439] | < 100 |  |  | > 90 | < 1
CN(C)C(=O)c1cc2c(F)c(C3=CCCN(C(=O)CCn4cccn4)C3)cc(-c3ccc(C4CN(C(=O)c5ccc(Cl)c(C6CCC(=O)NC6=O)c5)C4)cc3)c2o1 (stereo not drawn) [Example I-495, 5-(1-(3-(1H-pyrazol-1-yl)propanoyl)-1,2,5,6-tetrahydropyridin-3-yl)-7-(4-(1-(4-chloro-3-(2,6-dioxopiperidin-3-yl)benzoyl)azetidin-3-yl)phenyl)-4-fluoro-N,N-dimethylbenzofuran-2-carboxamide] | < 100 | 10 to 100 | 50 to 70 |  | 
Cc1nn(C2CCC(=O)NC2=O)c2cccc(CCN3CCN(c4cc(Cl)c(-c5cc(C6=CCCN(C(=O)CCn7cccn7)C6)c(F)c6[nH]c(C(=O)N(C)C)cc56)cc4F)CC3)c12 (single isomer, unassigned) [Example I-1079] | < 100 |  |  | > 90 | < 1
CN(C)C(=O)c1cc2c(-c3ccc(C4CCN(c5ccc(N[C@@H]6CCC(=O)NC6=O)cc5F)CC4)cc3)cc(C3=CCCN(C(=O)CCn4cccn4)C3)c(F)c2[nH]1 (single isomer, unassigned) [Example I-797] | < 100 | 1 to 10 | 70 to 90 |  | 
